Test results taken from ChEMBL document CHEMBL1212927, “Synthesis and structure-activity relationships of novel 8a-aza-8a-homoerythromycin A ketolides” (2010).
Values after ≈ are worked out from the molar mass of the structure shown.

Key:
Staphylococcus aureus [1] = assay: Antibacterial activity against efflux-resistant Staphylococcus aureus B0331 by agar microdilution method; assay type: functional
Staphylococcus aureus [2] = assay: Antibacterial activity against constitutive macrolide-lincosamide-streptogramin B-resistant Staphylococcus aureus B0330 by agar microdilution method; assay type: functional
Streptococcus pneumoniae [3] = assay: Antibacterial activity against constitutive macrolide-lincosamide-streptogramin B-resistant Streptococcus pneumoniae B0627 by agar microdilution method; assay type: functional
Streptococcus pneumoniae [4] = assay: Antibacterial activity against efflux-resistant Streptococcus pneumoniae B0326 by agar microdilution method; assay type: functional
Streptococcus pyogenes [5] = assay: Antibacterial activity against constitutive macrolide-lincosamide-streptogramin B-resistant Streptococcus pyogenes B0544 by agar microdilution method; assay type: functional
Streptococcus pyogenes [6] = assay: Antibacterial activity against efflux-resistant Streptococcus pyogenes B0545 by agar microdilution method; assay type: functional
Staphylococcus aureus [7] = assay: Antibacterial activity against inducible macrolide-lincosamide-streptogramin B-resistant Staphylococcus aureus B0538 by agar microdilution method; assay type: functional
Staphylococcus aureus [8] = assay: Antibacterial activity against erythromycin A-susceptible Staphylococcus aureus B0329 by agar microdilution method
Streptococcus pyogenes [9] = assay: Antibacterial activity against erythromycin A-susceptible Streptococcus pyogenes B0542 by agar microdilution method
Streptococcus pneumoniae [10] = assay: Antibacterial activity against erythromycin-susceptible Streptococcus pneumoniae B0541 by agar microdilution method
Streptococcus pyogenes [11] = assay: Antibacterial activity against inducible macrolide-lincosamide-streptogramin B-resistant Streptococcus pyogenes B0543 by agar microdilution method; assay type: functional
Moraxella catarrhalis = assay: Antibacterial activity against Moraxella catarrhalis B0324 by agar microdilution method; assay type: functional
Haemophilus influenzae = assay: Antibacterial activity against Haemophilus influenzae B0529 by agar microdilution method; assay type: functional

SMILES	MIC (Staphylococcus aureus [1]) [µg/mL]	MIC (Staphylococcus aureus [2]) [µg/mL]	MIC (Streptococcus pneumoniae [3]) [µg/mL]	MIC (Streptococcus pneumoniae [4]) [µg/mL]	MIC (Streptococcus pyogenes [5]) [µg/mL]	MIC (Streptococcus pyogenes [6]) [µg/mL]	MIC (Staphylococcus aureus [7]) [µg/mL]	MIC (Staphylococcus aureus [8]) [µg/mL]	MIC (Streptococcus pyogenes [9]) [µg/mL]	MIC (Streptococcus pneumoniae [10]) [µg/mL]	MIC (Streptococcus pyogenes [11]) [µg/mL]	MIC (Moraxella catarrhalis) [µg/mL]	MIC (Haemophilus influenzae) [µg/mL]
C=CCO[C@]1(C)C[C@@H](C)NC(=O)[C@H](C)[C@@H](O)[C@](C)(O)[C@@H](CC)OC(=O)[C@H](C)C(=O)[C@H](C)[C@H]1O[C@@H]1O[C@H](C)C[C@H](N(C)C)[C@H]1O	16 (≈ 25.4 µM)	> 64	> 64	4 (≈ 6.36 µM)	> 64	8 (≈ 12.7 µM)	> 64	8 (≈ 12.7 µM)	4 (≈ 6.36 µM)	1 (≈ 1.59 µM)	> 64	8 (≈ 12.7 µM)	16 (≈ 25.4 µM)
CC[C@H]1OC(=O)[C@H](C)C(=O)[C@H](C)[C@@H](O[C@@H]2O[C@H](C)C[C@H]([N+](C)(C)[O-])[C@H]2O)[C@](C)(OCC2CO2)C[C@@H](C)NC(=O)[C@H](C)[C@@H](O)[C@]1(C)O (some centres undefined)	> 64	> 64	> 64	> 64	> 64	> 64	> 64	> 64	> 64	> 64	> 64	> 64	> 64
CC[C@H]1OC(=O)[C@H](C)C(=O)[C@H](C)[C@@H](O[C@@H]2O[C@H](C)C[C@H](N(C)C)[C@H]2O)[C@](C)(OCC2CO2)C[C@@H](C)NC(=O)[C@H](C)[C@@H](O)[C@]1(C)O (some centres undefined)	16 (≈ 24.8 µM)	> 64	> 64	8 (≈ 12.4 µM)	> 64	8 (≈ 12.4 µM)	> 64	4 (≈ 6.2 µM)	4 (≈ 6.2 µM)	2 (≈ 3.1 µM)	> 64	16 (≈ 24.8 µM)	32 (≈ 49.6 µM)
CC[C@H]1OC(=O)[C@H](C)C(=O)[C@H](C)[C@@H](O[C@@H]2O[C@H](C)C[C@H](N(C)C)[C@H]2O)[C@](C)(OCC(O)CNCCCc2ccccc2)C[C@@H](C)NC(=O)[C@H](C)[C@@H](O)[C@]1(C)O (some centres undefined)	8 (≈ 10.3 µM)	> 64	8 (≈ 10.3 µM)	8 (≈ 10.3 µM)	16 (≈ 20.5 µM)	1 (≈ 1.28 µM)	8 (≈ 10.3 µM)	4 (≈ 5.13 µM)	0.25 (≈ 0.321 µM)	0.25 (≈ 0.321 µM)	1 (≈ 1.28 µM)	1 (≈ 1.28 µM)	16 (≈ 20.5 µM)
CC[C@H]1OC(=O)[C@H](C)C(=O)[C@H](C)[C@@H](O[C@@H]2O[C@H](C)C[C@H](N(C)C)[C@H]2O)[C@](C)(OCC(O)CNCCc2cccnc2)C[C@@H](C)NC(=O)[C@H](C)[C@@H](O)[C@]1(C)O (some centres undefined)	4 (≈ 5.22 µM)	> 64	2 (≈ 2.61 µM)	8 (≈ 10.4 µM)	32 (≈ 41.7 µM)	2 (≈ 2.61 µM)	8 (≈ 10.4 µM)	4 (≈ 5.22 µM)	0.25 (≈ 0.326 µM)	0.5 (≈ 0.652 µM)	4 (≈ 5.22 µM)	1 (≈ 1.3 µM)	8 (≈ 10.4 µM)
CC[C@H]1OC(=O)[C@H](C)C(=O)[C@H](C)[C@@H](O[C@@H]2O[C@H](C)C[C@H](N(C)C)[C@H]2O)[C@](C)(OCC(O)CNCCCc2cccnc2)C[C@@H](C)NC(=O)[C@H](C)[C@@H](O)[C@]1(C)O (some centres undefined)	4 (≈ 5.12 µM)	> 64	1 (≈ 1.28 µM)	4 (≈ 5.12 µM)	16 (≈ 20.5 µM)	1 (≈ 1.28 µM)	4 (≈ 5.12 µM)	2 (≈ 2.56 µM)	≤ 0.125	0.25 (≈ 0.32 µM)	0.5 (≈ 0.64 µM)	0.5 (≈ 0.64 µM)	16 (≈ 20.5 µM)
CC[C@H]1OC(=O)[C@H](C)C(=O)[C@H](C)[C@@H](O[C@@H]2O[C@H](C)C[C@H](N(C)C)[C@H]2O)[C@](C)(OCC(O)CNCCCCc2cccnc2)C[C@@H](C)NC(=O)[C@H](C)[C@@H](O)[C@]1(C)O (some centres undefined)	1 (≈ 1.26 µM)	> 64	0.5 (≈ 0.629 µM)	1 (≈ 1.26 µM)	4 (≈ 5.03 µM)	0.5 (≈ 0.629 µM)	1 (≈ 1.26 µM)	0.5 (≈ 0.629 µM)	≤ 0.125	≤ 0.125	≤ 0.125	≤ 0.125	2 (≈ 2.52 µM)
CC[C@H]1OC(=O)[C@H](C)C(=O)[C@H](C)[C@@H](O[C@@H]2O[C@H](C)C[C@H](N(C)C)[C@H]2O)[C@](C)(OCC(O)CNCCCCc2ccccn2)C[C@@H](C)NC(=O)[C@H](C)[C@@H](O)[C@]1(C)O (some centres undefined)	2 (≈ 2.52 µM)	> 64	2 (≈ 2.52 µM)	4 (≈ 5.03 µM)	32 (≈ 40.3 µM)	1 (≈ 1.26 µM)	4 (≈ 5.03 µM)	1 (≈ 1.26 µM)	0.25 (≈ 0.314 µM)	≤ 0.125	0.5 (≈ 0.629 µM)	≤ 0.125	4 (≈ 5.03 µM)
